Among the data in US20160362416A1, “ANTIVIRAL COMPOUNDS” (Gilead Sciences, Inc., priority 2012, published 2016) are EC50 values, retold here.

Test [1] deals with NS5A chimeric genotype 2a JFH-1 replicon with genotype 2b MD2b-1 strain NS5A gene (M31). Put plainly: HCV genotype 2b NS5A chimeric replicon assay, stable (s). Format: cell-based. As to conditions: Hepatitis C virus, 72 h, read-out: 2b (s) (nM). The protocol: (§1) Evaluation of cell-based anti-HCV activity: Antiviral potency (EC50) was determined using a Renilla luciferase (RLuc)-based HCV replicon reporter assay. To perform the assay for genotype 1 and 2a JFH-1, stable HCV 1a RLuc replicon cells (harboring a dicistronic genotype 1a H77 replicon that encodes a RLuc reporter), stable HCV lb RLuc replicon cells (harboring a dicistronic genotype 1b Conl replicon that encodes a RLuc reporter), or stable HCV 2a JFH-1 Rluc replicon cells (harboring a dicistronic genotype 2a JFH-1 replicon that encodes a RLuc reporter; with L31 present in NS5A) were dispensed into 384-well plates for EC50 assays. To perform the assay for genotype 2a (with M31 present in NS5A) or 2b, NS5A chimeric genotype 2a JFH-1 replicons that encodes a RLuc-Neo reporter and either genotype 2a J6 strain NS5A gene or genotype 2b MD2b-1 strain NS5A gene (both with M31 present) respectively, were either transiently transfected (t) into Huh-Lunet cells or were established as stably replicating replicon cells (s) is provided. Either cells were dispensed into 384-well plates for EC50 assays. To perform the assay for genotype 3 and 4, NS5A chimeric genotype 1b Conl replicons that encodes a Pi-RLuc reporter and either genotype 3a S52 strain NS5A gene or genotype 4a ED43 strain NS5A gene respectively, were transiently transfected (t) into Huh-Lunet cells, which were subsequently dispensed into 384-well plates. Compounds were dissolved in DMSO at a concentration of 10 mM and diluted in DMSO either manually or using an automated pipeting instrument. Serially 3-fold diluted compounds were either manually mixed with cell culture media and added to the seeded cells or directly added to the cells using an automated instrument. DMSO was used as a negative (solvent; no inhibition) control, and the protease inhibitor ITMN-191 was included at a concentration >100×EC50 as a positive control. 72 hours later, cells were lysed and Renilla luciferase activity quantified as recommended by the manufacturer (Promega-Madison, Wis.). Non-linear regression was performed to calculate EC50 values.
On the technique in general: In antiviral work, replicon cells carry a viral genome segment that copies itself.

Test [2] deals with NS5A chimeric genotype 1b Con1 replicon with genotype 3a S52 strain NS5A gene. Put plainly: HCV genotype 3a NS5A chimeric replicon assay. The format is cell-based. As to conditions: Hepatitis C virus, 72 h, read-out: 3a (nM). The protocol:
as §1

Test [3] concerns NS5A chimeric genotype 1b Con1 replicon with genotype 4a ED43 strain NS5A gene. Put plainly: HCV genotype 4a NS5A chimeric replicon assay. Format: cell-based. As to conditions: Hepatitis C virus, 72 h, read-out: 4a (s) (nM). The protocol:
as §1, with “[…],” for “were transiently transfected (t) into Huh-Lunet cells,”

For test [4], the system named is stable HCV 1b RLuc replicon cells (genotype 1b Con1 replicon). Kind of test: HCV genotype 1b RLuc replicon reporter assay. Format: cell-based. The note with it: Hepatitis C virus; stable genotype 1b Con1 RLuc replicon cells, 72 hours. The method, then: as §1
The test system of test [5] is stable HCV 1a RLuc replicon cells (genotype 1a H77 replicon). Put plainly: HCV genotype 1a RLuc replicon reporter assay. The format is cell-based. As to conditions: Hepatitis C virus; stable genotype 1a H77 RLuc replicon cells, 72 hours. The method, then: as §1
Test [6] relates to stable HCV 2a JFH-1 Rluc replicon cells (L31 present in NS5A). Put plainly: HCV genotype 2a JFH-1 RLuc replicon reporter assay. Format: cell-based. As to conditions: Hepatitis C virus, 72 h, read-out: 2a JFH (nM). The method, then:
as §1

Test [7] concerns NS5A chimeric genotype 2a JFH-1 replicon with genotype 2a J6 strain NS5A gene (M31). Kind of test: HCV genotype 2a J6 NS5A chimeric replicon assay, transient (t). Format: cell-based. As to conditions: Hepatitis C virus, 72 h, read-out: 2a J6 (t) (nM). The protocol: as §1
The subject of test [8] is Y93H in genotype 1a NS5A replicon. Put plainly: Resistance mutant replicon assay, genotype 1a NS5A Y93H. As to conditions: Hepatitis C virus, read-out: 1a Y93H (nM). The format is cell-based, HCV. The method, then: as §1
(§2) To determine the antiviral potency (EC50) against resistance mutants, resistance mutations, including M28T, Q30R, Q30H, Q30E, L31M, Y93C, Y93H, and Y93N in genotype 1a NS5A, Y93H and L31V/Y93H in genotype 1b NS5A, and Y93H for in genotype 3a NS5A, were introduced individually into either 1a Pi-Rluc or 1b Pi-Rluc replicons by site directed mutagenesis. Replicon RNA of each resistant mutant was transiently transfected into Huh-7-derived cured-51 cells and antiviral potency was determined on these transfected cells as described above.

The test system of test [9] is Y93N in genotype 1a NS5A replicon. Kind of test: Resistance mutant replicon assay, genotype 1a NS5A Y93N. The format is cell-based, HCV. As to conditions: Hepatitis C virus, read-out: 1a Y93N (nM). The protocol: as §1, §2
The test system of test [10] is Y93H in genotype 3a NS5A replicon. Put plainly: Resistance mutant replicon assay, genotype 3a NS5A Y93H. As to conditions: Hepatitis C virus, read-out: 3a Y93H (nM). Format: cell-based, HCV. The method, then: as §1, §2

As to `COC(=O)N[C@H](C(=O)N1[C@@H](C)CC[C@H]1c1nc2ccc3cc4c(cc3c2[nH]1)OCc1cc(-c2cnc([C@@H]3CC[C@H](C)N3C(=O)[C@H](NC(=O)OC)[C@H]3C[C@@H](C)O[C@@H](C)C3)[nH]2)ccc1-4)C(C)C` [Example AP, Methyl {(2S)-1-[(2S,5S)-2-(9-{2-[(2S,5S)-1-{(2R)-2-[(2R,6S)-2,6-dimethyltetrahydro-2H-pyran-4-yl]-2-[(methoxycarbonyl)amino]acetyl}-5-methylpyrrolidin-2-yl]-1H-imidazol-5-yl}-1,11-dihydroisochromeno[4′,3′:6,7]naphtho[1,2-d]imidazol-2-yl)-5-methylpyrrolidin-1-yl]-3-methyl-1-oxobutan-2-yl}carbamate], the EC50 is 4.44 nM in test [1]; 4.44 nM in test [2]; 1.19 nM in test [3]; 0.038 nM in test [4]; 1.52 nM in test [5]; 1.1 nM in [6]. For the same molecule, in test [7], the EC50 is 4.44 nM.

In the case of `COC(=O)N[C@H](C(=O)N1[C@@H](C)CC[C@H]1c1ncc(-c2ccc3c(c2)COc2cc4c(ccc5nc([C@@H]6CC[C@H](C)N6C(=O)[C@H](NC(=O)OC)C6C[C@@H](C)O[C@H](C)C6)[nH]c54)cc2-3)[nH]1)C(C)C` (stereo partly drawn) [Example AR, Methyl {(2S)-1-[(2S,5S)-2-(5-{2-[(2S,5S)-1-{(2R)-2-[(2R,6R)-2,6-dimethyltetrahydro-2H-pyran-4-yl]-2-[(methoxycarbonyl)amino]acetyl}-5-methylpyrrolidin-2-yl]-1,11-dihydroisochromeno[4′,3′:6,7]naphtho[1,2-d]imidazol-9-yl}-1H-imidazol-2-yl)-5-methylpyrrolidin-1-yl]-3-methyl-1-oxobutan-2-yl}carbamate], the EC50 was 15.8 nM in test [1]; 8.3 nM in test [2]; 4.19 nM in test [3]; 0.09 nM in test [4]; 8.98 nM in test [5]; 2.11 nM in test [6]. In [7], the EC50 was found to be 5.14 nM.

With `COC(=O)N[C@H](C(=O)N1[C@H](c2ncc(-c3ccc4c(c3)COc3cc5c(ccc6nc([C@@H]7C[C@H](C)[C@H](C)N7C(=O)[C@@H](NC(=O)OC)C7C[C@@H](C)O[C@H](C)C7)[nH]c65)cc3-4)[nH]2)C[C@H](C)[C@@H]1C)C1C[C@@H](C)O[C@H](C)C1` (stereo partly drawn) [Example AZ, Methyl {(1S)-1-[(2R,6R)-2,6-dimethyltetrahydro-2H-pyran-4-yl]-2-[(2S ,3S,5S)-5-(5-{2-[(2S,4S,5S)-1-{(2S)-2-[(2R,6R)-2,6-dimethyltetrahydro-2H-pyran-4-yl]-2-[(methoxycarbonyl)amino]acetyl}-4,5-dimethylpyrrolidin-2-yl]-1,11-dihydroisochromeno[4′,3′:6,7]naphtho[1,2-d]imidazol-9-yl}-1H-imidazol-2-yl)-2,3-dimethylpyrrolidin-1-yl]-2-oxoethyl}carbamate], the EC50 is 0.025 nM in test [8]; 0.024 nM in test [1]; 0.025 nM in test [2]; 0.013 nM in test [3]; 0.031 nM in [4]; 0.021 nM in test [5]. The EC50 in test [6] was found to be 0.01 nM; in test [9] it was 0.059 nM; in [10], 4.52 nM.

In the case of `COC(=O)N[C@H](C(=O)N1[C@@H](c2nc3ccc4cc5c(cc4c3[nH]2)OCc2cc(-c3cnc([C@@H]4C[C@H](C)[C@H](C)N4C(=O)[C@@H](NC(=O)OC)C4C[C@@H](C)O[C@H](C)C4)[nH]3)ccc2-5)C[C@@H](C)[C@H]1C)C1C[C@@H](C)O[C@H](C)C1` (stereo partly drawn) [Example BA, Methyl {(1S)-1-[(2R,6R)-2,6-dimethyltetrahydro-2H-pyran-4-yl]-2-[(2R,3R,5R)-5-(9-{2-[(2S,4S,5S)-1-{(2S)-2-[(2R,6R)-2,6-dimethyltetrahydro-2H-pyran-4-yl]-2-[(methoxycarbonyl)amino]acetyl}-4,5-dimethylpyrrolidin-2-yl]-1H-imidazol-5-yl}-1,11-dihydroisochromeno[4′,3′:6,7]naphtho[1,2-d]imidazol-2-yl)-2,3-dimethylpyrrolidin-1-yl]-2-oxoethyl}carbamate], the EC50 in test [8] came to 0.359 nM; in test [1], 0.202 nM; in test [2], 0.231 nM; in [3], 0.108 nM; in test [4], 0.061 nM; in [5] it was 0.169 nM. Further, the EC50 in test [6] worked out at 0.086 nM; in test [9] it was 0.496 nM; in test [10], 40.6 nM.

As for `COC(=O)N[C@H](C(=O)N1[C@@H](c2ncc(-c3ccc4c(c3)COc3cc5c(ccc6nc([C@@H]7C[C@H](C)[C@H](C)N7C(=O)[C@@H](NC(=O)OC)C7C[C@@H](C)O[C@H](C)C7)[nH]c65)cc3-4)[nH]2)C[C@@H](C)[C@H]1C)C1C[C@@H](C)O[C@H](C)C1` (stereo partly drawn) [Example BB, Methyl {(1S)-1-[(2R,6R)-2,6-dimethyltetrahydro-2H-pyran-4-yl]-2-[(2R,3R,5R)-5-(5-{2-[(2S,4S,5S)-1-{(2S)-2-[(2R,6R)-2,6-dimethyltetrahydro-2H-pyran-4-yl]-2-[(methoxycarbonyl)amino]acetyl}-4,5-dimethylpyrrolidin-2-yl]-1,11-dihydroisochromeno[4′,3′:6,7]naphtho[1,2-d]imidazol-9-yl}-1H-imidazol-2-yl)-2,3-dimethylpyrrolidin-1-yl]-2-oxoethyl}carbamate], the EC50 was 20.2 nM in test [8]; 10.6 nM in test [1]; 10.3 nM in [2]; 2.54 nM in [3]; 0.205 nM in test [4]; 3.85 nM in [5]. In addition, the EC50 was determined as 2.96 nM in test [6] and 29.6 nM in test [9].
